# System: HeLa-654 cells
# Assay: HeLa cell assay: e-GFP fluorescence from exon skipping / cellular delivery, by flow cytometry
# Format: cell-based
# Settings: Accuri C6 flow cytometer, signal reflects exon skipping and cellular uptake
# Experimental: The height of the green fluorescent signal bars indicate different intensities based on the level of exon skipping that occurs in the nucleus of HeLa-654 cells, whether the cells are treated or untreated with test compounds. The signal intensity or size of the bar also corresponds to the effectiveness of cellular uptake (that is, delivery into the cell). […] The various treatment regimens include continuous treatment of HeLa-654 cells over time or pulse-chase treatments where a test compound is incubated with cells and then after a period of time (3 hours) is washed away from the cells and fresh, test compound-free media is added.
# Results: The baseline activity of unconjugated PMO and untreated cells is shown. The peptide/PMO (PPMO) conjugates of the present disclosure all show greater cellular uptake than: 1) unconjugated PMO, and 2) untreated cells (which reveal the green fluorescent background signal). This difference in fluorescence intensity between the peptide/PMO conjugates of the present invention and the background or unconjugated-PMO indicates significant pharmacological activity of the stapled peptide/PMO conjugates.
substance,measurement,value
"PPMO 3: (i, i+4) hexafluorobenzene-stapled peptide-PMO conjugate, sequence SEQ ID NO: 9 (GCTATTACCTTAACCCAG; all phosphorodiamidate morpholino (PMO); stapled cell-penetrating peptide conjugated to PMO)",Mean FL1-H (mean fluorescence intensity of e-GFP),"123,401.08"

# Source: patent publication US11672871B2, “Peptide oligonucleotide conjugates” (Sarepta Therapeutics, Inc., priority 2015, dated 2023)
